Assay results as given in article PMC6911004, “Fragment-based screening identifies molecules targeting the substrate-binding ankyrin repeat domains of tankyrase” (Scientific Reports, 2019).
≈ marks a conversion by molar mass, not a printed value. Entries after “also recorded” stand apart in the source; their conditions may differ.

Key:
[1] = molecular target: T1, TNKS2 ARC4 (488–649) (Homo sapiens, UniProt Q9H2K2); assay: Protein-observed 1H-15N HSQC NMR titration (chemical shift perturbation); type: binding; settings: for 15N NMR / 15N HSQC chemical shift perturbations (CSPs): 15N-labelled TNKS2 ARC4
T1 construct: The cell was filled with TNKS2 ARC4 (488–649); His6-GST (cleaved yes); made in house; host or cells: E. coli BL21-CodonPlus (DE3)-RIL
T1 sequence (Q9H2K2 488-649): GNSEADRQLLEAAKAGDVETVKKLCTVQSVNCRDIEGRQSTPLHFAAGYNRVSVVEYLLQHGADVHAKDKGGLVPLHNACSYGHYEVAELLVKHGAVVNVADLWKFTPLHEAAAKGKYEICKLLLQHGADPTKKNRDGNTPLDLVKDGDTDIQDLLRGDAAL
Description: We next tested validated hits from both the DSF and NMR screens against TNKS2 ARC4 using protein-observed NMR. This included 16 compounds in total: 14 fragments identified by DSF and confirmed to bind TNKS2 ARC5 by both relaxation-edited and waterLOGSY methods and two unique fragments identified by NMR and confirmed to bind TNKS2 ARC4 by both ligand-observed NMR methods. We used the 3BP2 TBM peptide as a positive control. To directly identify fragment binding sites on the ARC, we performed a full backbone and partial side-chain assignment of TNKS2 ARC4, doubly labelled with ^15N and ^13C isotopes. The assignment details have been reported elsewhere. […] The different binding regimes may distinguish primary interaction hotspots that are engaged robustly when a peptide is first recruited (slow exchange) from secondary binding sites in the ARC that become occupied once primary binding hotspots are engaged; these may be more dynamic (fast exchange).
We then titrated compounds against ^15N-labelled TNKS2 ARC4, initially at protein:compound ratios of 1:1 and 1:3. […] We confirmed that the CSPs were not caused by pH changes during the titration by measuring the pH of the peptide and fragment stocks (at 3 mM) in assay buffer. Consistent with TBM-competitive binding of fragments 3 and 5, we identified several peaks that shifted in both fragment and 3BP2 TBM peptide titrations. […] However, the solubility of fragments 3 and 5 in assay buffer limited the maximum concentration achievable, and so complete saturation was not reached. This confounded affinity measurements and more extensive analyses of the fragment binding sites by protein-observed NMR.
^15N-labelled TNKS2 ARC4 (488–649) (300 μM final concentration; 5 μL of 3 mM stock) in NMR buffer (45 μL, 25 mM HEPES-NaOH pH 7.5, 100 mM NaCl, 1 mM TCEP, 10% D2O) was used as the baseline sample. Peptide titration samples (Table 6) were prepared by diluting the 16-mer 3BP2 peptide with NMR buffer (45 μL), then adding TNKS2 ARC4 (300 μM final concentration; 5 μL of 3 mM stock). Separate samples were prepared for each concentration point. Fragment titration samples (Table 7) were prepared by diluting fragments in NMR buffer (25 mM HEPES-NaOH pH 7.5, 100 mM NaCl, 1 mM TCEP, 10% D2O) and backfilling with DMSO to keep a constant DMSO concentration of 5%. ^15N-labelled TNKS2 ARC4 (300 μM final concentration; 5 μL of 3 mM stock) was added. Protein with 5% DMSO alone was used as the baseline. Separate samples were prepared for each concentration point. ^1H-^15N HSQC spectra were acquired over 3 h, with 64 scans and a spectrum width of 16.00 ppm for ^1H and 29.00 ppm for ^15N. The pH of the peptide and fragment stocks (at 3 mM) was confirmed to exclude the possibility that peak shifts were due to changes in pH during the titration.
Peaks that shifted were picked manually in each spectrum. The chemical shifts for each peak were measured and exported into Microsoft Excel, where the change in chemical shift from baseline was calculated for hydrogen and nitrogen shifts. The average Euclidean distance shifted (d) was then calculated using Eq. 2, weighting the different nuclei:2 d=√{1/2[δH2+(α.δN2)]},whereα=0.14
Values of d were plotted against ligand concentration in GraphPad Prism, and fitted with Eq. 3:3 Δδobs=Δδmax{([P]t+[L]t+Kd)−[([P]t+[L]t+Kd)^2−4[P]t[L]t]^1/2/2[P]t
Kd values were calculated for each peak that shifted individually. The mean of all shifting peaks was then calculated to give an apparent Kd value.

[2] = molecular target: T2, TNKS2 ARC4 (Homo sapiens, UniProt Q9H2K2); assay: WaterLOGSY NMR assay; type: binding; settings: for waterLOGSY: wild-type TNKS2 ARC4 20 μM, negative NOE = binder
T2 construct: The cell was filled with TNKS2 ARC4 (488–649); His6-GST; made in house; host or cells: E. coli
T2 sequence (Q9H2K2 488-649): T1 sequence (Q9H2K2 488-649)
Method: We next sought close structural analogues of hit fragments 3 and 5 to gain early insights into structure-activity relationships (SAR) and binding modes of hit fragments. We initially tested the analogues using both relaxation-edited and waterLOGSY NMR assays against TNKS2 ARC4 (Table 1), followed by protein-observed NMR if binding was detected in both ligand-observed NMR experiments.
Fragments were dispensed in duplicate into a 384-well plate (250 nL, 100 mM stock in DMSO). Wells were backfilled with DMSO (2.25 μL). Tankyrase ARC protein (47.5 μL in 25 mM HEPES-NaOH pH7.5, 100 mM NaCl, 2 mM TCEP, 10% D2O; 20 μM final protein concentration in the assay) was added to the samples containing protein; buffer only (47.5 μL) was added to the compound-only samples. Solutions were transferred to 1.7 mm NMR tubes using a Gilson liquid handling system. ^1H NMR spectra were recorded, with the DMSO signal dampened. The bulk water signal at 4.7 ppm was selectively inverted. Data were processed using Bruker Topspin 3.14[66].

[3] = Fragment solubility assay by NMR; type: physicochemical; settings: NMR buffer (HEPES-NaOH) with 5% DMSO, aqueous with cosolvent or surfactant or cyclodextrin, kinetic from dmso stock; NMR buffer pH 7.5, 5% DMSO, 500 μM nominal
Method: Fragments were dispensed into a 384-well plate (250 nL of 100 mM stock in DMSO, 500 μM final concentration) using an ECHO acoustic dispenser. DMSO (2.25 μL) was added, then NMR buffer (47.5 μL, 25 mM HEPES-NaOH pH 7.5, 100 mM NaCl, 1 mM TCEP, 10% D2O). The plate was centrifuged (1 min, 1000 × g) before the solutions were transferred to 1.7 mm NMR tubes using a Gilson liquid handling system. ^1H NMR spectra were recorded with the DMSO and water signals dampened. 100 μM caffeine was used as an external standard to quantify the ligand signals.

[4] = TNKS2 ARC4 300 μM, fragment up to 4800 μM, 5% DMSO

| NMR Kd (apparent, mean of shifting peaks) [1, 4] | waterLOGSY: competition with 3BP2 TBM peptide [2] | solubility [3] [µM] | Kd ([1]; TNKS2 ARC4 300 μM, fragment up to 4800 μM, 5% DMSO, read-out: NMR Kd (apparent, mean of shifting peaks)) [µM] | Molecule | 15N NMR / 15N HSQC chemical shift perturbations (CSPs) [1] | waterLOGSY [2] | waterLOGSY, compound alone ([2]; no protein added) |
| --- | --- | --- | --- | --- | --- | --- | --- |
| no saturation | peptide competition | 410 (≈ 115 µg/mL) | – | O=C(NCc1ccc(F)cc1)c1ccc2nccnc2c1 [compound 5] | significant CSPs; also recorded: substantial CSPs; also recorded: CSPs observed | negative NOE; also recorded: binding | – |
| – | – | 650 (≈ 165 µg/mL) | 1050 | O=C(NCc1ccco1)c1ccc2nccnc2c1 [compound 9] | substantial CSPs; also recorded: significant CSPs | one peak has negative NOE; also recorded: binding; also recorded: negative NOE signal | no NOE |
| no saturation | – | 220 (≈ 48.2 µg/mL) | – | O=C(NCc1ccco1)c1ccc(F)cc1 [compound 3] | significant CSPs; also recorded: substantial CSPs; also recorded: CSPs observed | negative NOE; also recorded: binding | – |
| – | – | – | – | LPHLQRSPPDGQSFRSW [3BP2 16-mer peptide, 16-mer TBM peptide derived from 3BP2, W added for A280, N-terminus acetylated, C-terminus amide-capped; positive control, reference compound] | significant chemical shift perturbations | – | – |
